From patent US20140357579A1, “SYNTHETIC PEPTIDE AMIDES AND DIMERS THEREOF” (priority 2006, published 2014)
Like-named read-outs stand apart in the source and are kept apart here. Square brackets hold non-standard residues; d marks the D form. Side chains are listed from the residue outwards. Peptide text beside a SMILES is read from it. dOrn = NCCC[C@@H](N)C(=O)O; Inp = O=C(O)C1CCNCC1

Assays:
[1] = molecular target: T1, mouse kappa opioid receptor (mKOR) (Mus musculus, UniProt P33534); experiment: Inhibition of forskolin-stimulated cAMP production in R1.G1 cells (TR-FRET cAMP immunoassay); type: cell-based; conditions: for EC50: inhibition of forskolin-stimulated cAMP
T1 construct: a mouse thymoma cell line that expresses only the kappa-opioid receptor and no other opioid receptor subtype; host or cells: R1.G1 mouse thymoma cells

[2] = molecular target: T2, human kappa opioid receptor (hKOR) (Homo sapiens, UniProt P41145); experiment: NFAT-luciferase reporter assay in HEK-293 cells transfected with human kappa opioid receptor and chimeric G-protein; type: cell-based; conditions: for EC50: transfected HEK-293 cells, luciferase reporter
T2 construct: expressed in transfected cells; host or cells: HEK-293 cells (ATCC), transient transfection with pcDNA3-hOPRK1

[3] = HEK293, percent maximal activation compared to full induction by known kappa agonists, read-out: hKOR Efficacy(%)
[4] = percent maximal activation compared to full induction by known kappa agonists
[5] = R1.G1 cells, read-out: mKOR Efficacy(%)
[6] = read-out: mKOR Efficacy(%), R1.G1 cells
[7] = HEK293, read-out: hKOR Efficacy(%), percent maximal activation compared to full induction by known kappa agonists
[8] = R1.G1 cells, read-out: mKOR EC50

T2 sequence (P41145 whole entry): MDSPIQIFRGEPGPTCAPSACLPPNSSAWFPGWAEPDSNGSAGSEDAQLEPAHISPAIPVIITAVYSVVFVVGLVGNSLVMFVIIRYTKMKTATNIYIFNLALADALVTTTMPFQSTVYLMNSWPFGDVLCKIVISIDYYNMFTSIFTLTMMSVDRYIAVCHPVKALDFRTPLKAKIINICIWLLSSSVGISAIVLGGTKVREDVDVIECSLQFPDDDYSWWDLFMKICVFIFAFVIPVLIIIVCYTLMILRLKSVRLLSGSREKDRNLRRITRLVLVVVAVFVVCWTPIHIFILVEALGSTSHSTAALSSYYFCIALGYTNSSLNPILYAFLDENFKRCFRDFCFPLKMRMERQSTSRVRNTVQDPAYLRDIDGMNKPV
T1 sequence (P33534 whole entry): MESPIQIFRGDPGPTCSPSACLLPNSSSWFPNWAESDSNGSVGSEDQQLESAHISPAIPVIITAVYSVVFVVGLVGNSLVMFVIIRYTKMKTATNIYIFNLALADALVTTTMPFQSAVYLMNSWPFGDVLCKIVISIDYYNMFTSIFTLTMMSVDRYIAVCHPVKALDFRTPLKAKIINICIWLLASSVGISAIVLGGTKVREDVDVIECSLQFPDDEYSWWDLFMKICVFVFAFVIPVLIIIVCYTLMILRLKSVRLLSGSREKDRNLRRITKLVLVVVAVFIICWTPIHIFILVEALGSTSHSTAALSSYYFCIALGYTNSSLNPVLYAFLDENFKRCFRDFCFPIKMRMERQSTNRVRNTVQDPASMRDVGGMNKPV

| Structure (SMILES) | mKOR Efficacy(%) ([1]; R1.G1 cells) | Emax [2, 3] [%] | EC50 ([2]; read-out: hKOR EC50) [nM] | hKOR Efficacy(%) [2, 4] [%] | further results |
| --- | --- | --- | --- | --- | --- |
| CC(C)C[C@@H](NC(=O)[C@@H](Cc1ccccc1)NC(=O)[C@H](N)Cc1ccccc1)C(=O)N[C@H](CCCN)C(=O)N1CCC(C(=O)O)CC1 [Compound 9, D-Phe-D-Phe-D-Leu-D-Orn-[Isonipecotic acid]-OH] (H-[dF][dF][dL][dOrn][Inp]-OH; N-terminus assumed) | 92 | 134 | 0.39 |  |  |
| CC(C)C[C@@H](NC(=O)[C@@H](Cc1ccccc1)NC(=O)[C@H](N)Cc1ccccc1)C(=O)N[C@H](CCCN)C(=O)N1CCC(N2CCC[C@H]2C(=O)O)CC1 [Compound 10, D-Phe-D-Phe-D-Leu-D-Orn-[N-(4-piperidinyl)-L-proline]-OH] | 99 |  | 0.12 | 92 |  |
| CC(C)C[C@@H](NC(=O)[C@@H](Cc1ccccc1)NC(=O)[C@H](N)Cc1ccccc1)C(=O)N[C@H](CCCN)C(=O)N1CCCNCC1 [Compound 11, D-Phe-D-Phe-D-Leu-D-Orn-[homopiperazine amide]] | 100 | 90 | 0.12 |  |  |
| CC(C)C[C@@H](NC(=O)[C@@H](Cc1ccccc1)NC(=O)[C@H](N)Cc1ccccc1)C(=O)N[C@H](CCCN)C(=O)N1CCC(CCCC(=O)O)CC1 [Compound 12, D-Phe-D-Phe-D-Leu-D-Orn-[4-(4-piperidinyl)-butanoic acid]-OH] | 100 | 99 | 0.3 |  |  |
| CC(C)C[C@@H](NC(=O)[C@@H](Cc1ccccc1)NC(=O)[C@H](N)Cc1ccccc1)C(=O)N[C@H](CCCN)C(=O)NCCN1CCN(CC(N)=O)CC1 [Compound 13, D-Phe-D-Phe-D-Leu-D-Orn-[4-(2-aminoethyl)-1-carboxymethyl-piperazine]-NH2] | 96 |  |  | 96 |  |
| CC(C)C[C@@H](NC(=O)[C@@H](Cc1ccccc1)NC(=O)[C@H](N)Cc1ccccc1)C(=O)N[C@H](CCCN)C(=O)N1CCC(N2CCC[C@H]2C(N)=O)CC1 [Compound 14, D-Phe-D-Phe-D-Leu-D-Orn-[N-(4-piperidinyl)-L-proline]-NH2] | 96 | 105 | 0.21 |  |  |
| CC(C)C[C@@H](NC(=O)[C@@H](Cc1ccccc1)NC(=O)[C@H](N)Cc1ccccc1)C(=O)N[C@H](CCCN)C(=O)N1CCCN(C(=N)N)CC1 [Compound 16, D-Phe-D-Phe-D-Leu-D-Orn-[4-Amidinohomopiperazine amide]] |  | 90 | 0.12 |  | Emax [1, 5]: 99% |
| CCN1CCCN(C(=O)[C@@H](CCCN)NC(=O)[C@@H](CC(C)C)NC(=O)[C@@H](Cc2ccccc2)NC(=O)[C@H](N)Cc2ccccc2)CC1 [Compound 18, D-Phe-D-Phe-D-Leu-D-Orn-[4-ethylhomopiperazine amide]] | 99 | 99 |  |  |  |
| CNC(=N)N1CCCN(C(=O)[C@@H](CCCN)NC(=O)[C@@H](CC(C)C)NC(=O)[C@@H](Cc2ccccc2)NC(=O)[C@H](N)Cc2ccccc2)CC1 [Compound 19, D-Phe-D-Phe-D-Leu-D-Orn-[4-(N-methyl)amidinohomopiperazine amide]] | 101 | 93 | 0.21 |  |  |
| CC(C)C[C@@H](NC(=O)[C@@H](Cc1ccccc1)NC(=O)[C@H](N)Cc1ccccc1)C(=O)N[C@H](CCCNC(C)C)C(=O)N1CCC(N)(C(=O)O)CC1 [Compound 20, D-Phe-D-Phe-D-Leu-(δ-iPr)D-Orn-[omega(4-Aminopiperidine-4-carboxylic acid)]-OH] | 92 | 97 | 0.15 |  |  |
| CC(C)C[C@@H](NC(=O)[C@@H](Cc1ccccc1)NC(=O)[C@H](N)Cc1ccccc1)C(=O)N[C@H](CCCCN)C(=O)NCC1OCCO1 [Compound 25] | 85 |  |  | 98 |  |
| CC(C)C[C@@H](NC(=O)[C@@H](Cc1ccccc1)NC(=O)[C@H](N)Cc1ccccc1)C(=O)N[C@H](CCCCN)C(=O)N1CCN(c2ncccn2)CC1 [Compound 26, D-Phe-D-Phe-D-Leu-D-Lys-[2-(piperazin-1-yl)pyrimidine amide]] | 78 |  |  | 98 |  |
| CC(C)C[C@@H](NC(=O)[C@@H](Cc1ccccc1)NC(=O)[C@H](N)Cc1ccccc1)C(=O)N[C@H](CCCCN)C(=O)N1CCN(c2cnccn2)CC1 [Compound 27, D-Phe-D-Phe-D-Leu-D-Lys-[2-(piperazin-1-yl)pyrazine amide]] | 85 |  |  | 100 |  |
| CC(C)C[C@@H](NC(=O)[C@@H](Cc1ccccc1)NC(=O)[C@H](N)Cc1ccccc1)C(=O)N[C@H](CCCCN)C(=O)N1CCN(c2ccccn2)CC1 [Compound 28, D-Phe-D-Phe-D-Leu-D-Lys-[1-(pyridin-2-yl)piperazine amide]] | 89 |  |  | 100 |  |
| CC(C)C[C@@H](NC(=O)[C@@H](Cc1ccccc1)NC(=O)[C@H](N)Cc1ccccc1)C(=O)N[C@H](CCCCN)C(=O)N1CCN(c2nccs2)CC1 [Compound 29, D-Phe-D-Phe-D-Leu-D-Lys-[2-(piperazin-1-yl)thiazole amide]] | 85 |  |  | 92 |  |
| CC(C)C[C@@H](NC(=O)[C@@H](Cc1ccccc1)NC(=O)[C@H](N)Cc1ccccc1)C(=O)N[C@H](CCCCN)C(=O)N1CCN(S(=O)(=O)N(C)C)CC1 [Compound 30, D-Phe-D-Phe-D-Leu-D-Lys-[N,N-dimethylpiperazine-1-sulfonamide amide]] | 86 |  |  | 101 |  |
| CC(C)C[C@@H](NC(=O)[C@@H](Cc1ccccc1)NC(=O)[C@H](N)Cc1ccccc1)C(=O)N[C@H](CCCCN)C(=O)N1CCN(S(C)(=O)=O)CC1 [Compound 31, D-Phe-D-Phe-D-Leu-D-Lys-[1-(methylsulfonyl)piperazine amide]] | 82 |  |  | 100 |  |
| CC(C)C[C@@H](NC(=O)[C@@H](Cc1ccccc1)NC(=O)[C@H](N)Cc1ccccc1)C(=O)N[C@H](CCCCN)C(=O)N1CCN(S(=O)(=O)c2ccccc2)CC1 [Compound 32, D-Phe-D-Phe-D-Leu-D-Lys-[1-(phenylsulfonyl)piperazine amide]] | 87 |  |  | 101 |  |
| CC(C)C[C@@H](NC(=O)[C@@H](Cc1ccccc1)NC(=O)[C@H](N)Cc1ccccc1)C(=O)N[C@H](CCCCN)C(=O)N1CCN(C(=O)c2ccccc2)CC1 [Compound 33, D-Phe-D-Phe-D-Leu-D-Lys-[phenyl(piperazin-1-yl)methanone amide]] | 92 |  |  | 94 |  |
| CC(C)C[C@@H](NC(=O)[C@@H](Cc1ccccc1)NC(=O)[C@H](N)Cc1ccccc1)C(=O)N[C@H](CCCCN)C(=O)N1CCS(=O)(=O)CC1 [Compound 34, D-Phe-D-Phe-D-Leu-D-Lys-[thiolmorpholine-1,1-dioxide amide]] | 89 |  |  | 103 |  |
| CC(C)C[C@@H](NC(=O)[C@@H](Cc1ccccc1)NC(=O)[C@H](N)Cc1ccccc1)C(=O)N[C@H](CCCCN)C(=O)NCc1ccc(C(F)(F)F)nc1 [Compound 35, D-Phe-D-Phe-D-Leu-D-Lys-[6-trifluoromethyl-3-aminomethylpyridine amide]] | 85 |  |  | 95 |  |
| CC(C)C[C@@H](NC(=O)[C@@H](Cc1ccccc1)NC(=O)[C@H](N)Cc1ccccc1)C(=O)N[C@H](CCCCN)C(=O)NCc1ccc2[nH]c(=O)[nH]c2c1 [Compound 37, D-Phe-D-Phe-D-Leu-D-Lys-[5-(aminomethyl)-1H-benzo[d]imidazol-2(3H)-one amide]] | 87 |  |  | 99 |  |
| Cc1cnc(CNC(=O)[C@@H](CCCCN)NC(=O)[C@@H](CC(C)C)NC(=O)[C@@H](Cc2ccccc2)NC(=O)[C@H](N)Cc2ccccc2)cn1 [Compound 38] |  | 100 |  |  | Emax [1, 5]: 87% |
| CC(C)C[C@@H](NC(=O)[C@H](N)Cc1ccccc1)C(=O)N[C@H](CCCN)C(=O)N[C@@H](CCCCNC(=O)[C@@H](CCCN)NC(=O)[C@@H](CC(C)C)NC(=O)[C@@H](Cc1ccccc1)NC(=O)[C@H](N)Cc1ccccc1)C(=O)O [Compound 40] |  |  |  |  | Emax [1, 6]: 96%; Emax [2, 7]: 83%; EC50 ([2]; hKOR EC50 (nM)): 0.26 nM |
| CC(C)C[C@@H](NC(=O)[C@H](N)Cc1ccccc1)C(=O)N[C@H](CCCN)C(=O)N[C@@H](CCCCNC(=O)[C@@H](CCCN)NC(=O)[C@@H](CC(C)C)NC(=O)[C@@H](Cc1ccccc1)NC(=O)[C@H](N)Cc1ccccc1)C(=O)O [Compound 41] | 100 |  |  | 89 | EC50 ([2]; hKOR EC50 (nM)): 0.2 nM |
| CC(C)C[C@@H](NC(=O)[C@@H](Cc1ccccc1)NC(=O)[C@H](N)Cc1ccccc1)C(=O)N[C@H](CCCN)C(=O)NCCCC[C@H](NC(=O)[C@H](N)CCCN)C(=O)O [Compound 42] |  | 95 | 0.27 |  | EC50 [1, 8]: 0.24 nM; Emax [1, 5]: 97% |
| CC(C)C[C@@H](NC(=O)[C@@H](Cc1ccccc1)NC(=O)[C@H](N)Cc1ccccc1)C(=O)N[C@H](CCCN)C(=O)NCCCC[C@H](NC(=O)[C@@H](CCCN)NC(=O)[C@@H](CC(C)C)NC(=O)[C@@H](Cc1ccccc1)NC(=O)[C@H](N)Cc1ccccc1)C(N)=O [Compound 43] (H-[dF][dF][dL][dOrn]K([dOrn-dL-dF-dF])-NH2) |  |  |  |  | EC50 ([1]; mKOR EC50 (nM), R1.G1 cells): 0.08 nM; Emax [1, 6]: 101%; Emax [2, 7]: 94%; EC50 ([2]; hKOR EC50 (nM)): 0.13 nM |
| CC(C)C[C@@H](NC(=O)[C@@H](Cc1ccccc1)NC(=O)[C@H](N)Cc1ccccc1)C(=O)N[C@H](CCCN)C(=O)NCCCC[C@H](NC(=O)[C@H](N)CCCN)C(=O)N1CCNCC1 [Compound 44] |  | 93 | 0.25 |  | EC50 [1, 8]: 1.3 nM; Emax [1, 5]: 91% |
